Several values for one entry are separate records, joined by “and”; a condition that tells them apart may be missing. Identical values can stand only once. Like-named read-outs stand apart in the source and are kept apart here.
Columns and labels:
Format in all cases: cell-based
[1] = tested on: Gaeumannomyces graminis; experiment: Gaeumannomyces graminis liquid culture growth inhibition; details: Gaeumannomyces graminis, read-out: Compound 1.001 inhibition (%), in PDB
Method: (§1) Liquid Culture Tests in Well Plates
(§2) Mycelia fragments or conidia suspensions of a fungus, prepared either freshly from liquid cultures of the fungus or from cryogenic storage, were directly mixed into nutrient broth. DMSO solutions of the test compound (max. 10 mg/ml) was diluted with 0.025% Tween20 by factor 50 and 10 μl of this solution was pipetted into a microtiter plate (96-well format). The nutrient broth containing the fungal spores/mycelia fragments was then added to give an end concentration of the tested compound. The test plates were incubated in the dark at 24° C. and 96% rh. The inhibition of fungal growth was determined photometrically and visually after 2-4 days, depending on the pathosystem, and percent antifungal activity relative to the untreated check was calculated.
Gaeumannomyces graminis/Liquid Culture:
Mycelial fragments of the fungus from cryogenic storage were directly mixed into nutrient broth (PDB potato dextrose broth). After placing a (DMSO) solution of test compound into a microtiter plate (96-well format), the nutrient broth containing the fungal spores was added.

[2] = tested on: Fusarium culmorum; experiment: Fusarium culmorum liquid culture growth inhibition; details: for inhibition at 0.025 ppm: read-out: Compound 1.001 inhibition (%), 0.0250 ppm; for inhibition at 0.05 ppm: read-out: Compound 1.001 inhibition (%), 0.0500 ppm
Method: as §1, §2
Fusarium culmorum/Liquid Culture:
(§3) Conidia of the fungus from cryogenic storage were directly mixed into nutrient broth (PDB potato dextrose broth). After placing a (DMSO) solution of test compound into a microtiter plate (96-well format), the nutrient broth containing the fungal spores was added.

[3] = tested on: Monographella nivalis (Microdochium nivale); experiment: Monographella nivalis (Microdochium nivale) liquid culture growth inhibition
Method: as §1, §2
Monographella nivalis (Microdochium nivale)/Liquid Culture:
as §3

[4] = tested on: Alternaria solani; experiment: Alternaria solani liquid culture growth inhibition; details: for inhibition at 0.0008 ppm: read-out: Compound 1.001 inhibition (%), 0.0008 ppm; for inhibition at 0.0016 ppm: read-out: Compound 1.001 inhibition (%), 0.0016 ppm; for inhibition at 0.0031 ppm: read-out: Compound 1.001 inhibition (%), 0.0031 ppm
Method: as §1
as §2, with “The nutrient broth containing the fungal spores/mycelia fragments was then added to give an end concentration of the tested compound.” left out
Alternaria solanil/Liquid Culture:
as §3

[5] = tested on: Mycosphaerella graminicola (Septoria tritici); experiment: Mycosphaerella graminicola (Septoria tritici) liquid culture growth inhibition; details: for inhibition at 0.0008 ppm / inhibition at 0.0016 ppm / inhibition at 0.0031 ppm: Zymoseptoria tritici; for inhibition at 0.0008 ppm: read-out: Compound 1.001 inhibition (%), 0.0008 ppm; for inhibition at 0.0016 ppm: read-out: Compound 1.001 inhibition (%), 0.0016 ppm; for inhibition at 0.0031 ppm: read-out: Compound 1.001 inhibition (%), 0.0031 ppm
Method: as §1, §2
Mycosphaerella graminicola (Septoria tritici)/Liquid Culture:
as §3

[6] = tested on: Botryotinia fuckeliana (Botrytis cinerea); experiment: Botryotinia fuckeliana (Botrytis cinerea) liquid culture growth inhibition; details: for inhibition at 0.0016 ppm: read-out: Compound 1.001 inhibition (%), 0.0016 ppm; for inhibition at 0.0125 ppm: read-out: Compound 1.001 inhibition (%), 0.0125 ppm
Method: as §1, §2
Botryotinia fuckeliana (Botrytis cinerea)/Liquid Culture:
Conidia of the fungus from cryogenic storage were directly mixed into nutrient broth (Vogels broth). After placing a (DMSO) solution of test compound into a microtiter plate (96-well format), the nutrient broth containing the fungal spores was added.

[7] = tested on: Pythium ultimum; experiment: Pythium ultimum (seedling damping off) liquid culture growth inhibition; details: Globisporangium ultimum, read-out: Compound 1.001 inhibition (%), PDB
Method: as §1, §2
Pythium ultimum Seedling Damping Off)/Liquid Culture:
Mycelia fragments and oospores of a newly grown liquid culture of the fungus were directly mixed into nutrient broth (PDB potato dextrose broth). After placing a (DMSO) solution of the test compounds into a microtiter plate (96-well format), the nutrient broth containing the fungal mycelia/spore mixture was added.

[8] = Fusarium culmorum, PDB, Table 4
[9] = Alternaria solani, PDB, Table 7
[10] = Alternaria solani, PDB, Table 9
[11] = Alternaria solani, PDB, Table 11
[12] = Alternaria solani, PDB, Table 13
[13] = Botrytis cinerea, Vogels Broth, Table 6
[14] = Botrytis cinerea, in Vogels Broth

## CON(C(=O)c1cn(C)nc1C(F)F)C(C)Cc1c(Cl)cc(Cl)cc1Cl (stereo not drawn) [Compound 1.001, 3-(difluoromethyl)-N-methoxy-1-methyl-N-[1-methyl-2-(2,4,6-trichlorophenyl)ethyl]pyrazole-4-carboxamide]
[1]; 0.0250 ppm
  inhibition at 0.025 ppm: 0%
[1]; 0.0500 ppm
  inhibition at 0.05 ppm: 0%
[1]; 0.2000 ppm
  inhibition at 0.2 ppm: 0%
[2]; 0.0250 ppm, in PDB
  Compound 1.001 inhibition (%): 27% and 34% and 29%
[2]; 0.0500 ppm, in PDB
  Compound 1.001 inhibition (%): 54% and 53%
[2]; 0.1000 ppm, in PDB
  Compound 1.001 inhibition (%): 57%
[2]; 0.2000 ppm, in PDB
  Compound 1.001 inhibition (%): 59% and 57%
[2]; Fusarium culmorum, read-out: Compound 1.001 inhibition (%), 0.0016 ppm, PDB, Table 4
  inhibition at 0.0016 ppm: 7%
[2]; Fusarium culmorum, read-out: Compound 1.001 inhibition (%), 0.0031 ppm, PDB, Table 4
  inhibition at 0.0031 ppm: 19%
[2]; Fusarium culmorum, read-out: Compound 1.001 inhibition (%), 0.0063 ppm, PDB, Table 4
  inhibition at 0.0063 ppm: 14%
[2]; Fusarium culmorum, read-out: Compound 1.001 inhibition (%), 0.0125 ppm, PDB, Table 4
  inhibition at 0.0125 ppm: 20%
[2]; [8]
  inhibition at 0.025 ppm: 38%
  inhibition at 0.05 ppm: 46%
[2]; Fusarium culmorum, in PDB
  inhibition at 0.025 ppm: 24%
  inhibition at 0.05 ppm: 49%
[2]; Fusarium culmorum, read-out: Compound 1.001 inhibition (%), 0.1000 ppm, in PDB
  inhibition at 0.1 ppm: 51%
[2]; Fusarium culmorum, read-out: Compound 1.001 inhibition (%), 0.2000 ppm, in PDB
  inhibition at 0.2 ppm: 55%
[3]; 0.0008 ppm, in PDB
  Compound 1.001 inhibition (%): 3%
[3]; 0.0250 ppm, in PDB
  Compound 1.001 inhibition (%): 5%
[3]; 0.0500 ppm, in PDB
  Compound 1.001 inhibition (%): 48%
[3]; Monographella nivalis, read-out: Compound 1.001 inhibition (%), 0.0004 ppm, PDB, Table 5
  inhibition at 0.0004 ppm: 0%
[3]; Monographella nivalis, read-out: Compound 1.001 inhibition (%), 0.0008 ppm, PDB, Table 5
  inhibition at 0.0008 ppm: 0%
[3]; Monographella nivalis, read-out: Compound 1.001 inhibition (%), 0.0008 ppm, in PDB
  inhibition at 0.0008 ppm: 2%
[3]; Monographella nivalis, read-out: Compound 1.001 inhibition (%), 0.0016 ppm, PDB, Table 5
  inhibition at 0.0016 ppm: 0%
[3]; Monographella nivalis, read-out: Compound 1.001 inhibition (%), 0.0016 ppm, in PDB
  inhibition at 0.0016 ppm: 0%
[3]; Monographella nivalis, read-out: Compound 1.001 inhibition (%), 0.0031 ppm, PDB, Table 5
  inhibition at 0.0031 ppm: 0%
[3]; Monographella nivalis, read-out: Compound 1.001 inhibition (%), 0.0125 ppm, in PDB
  inhibition at 0.0125 ppm: 0%
[3]; Monographella nivalis, read-out: Compound 1.001 inhibition (%), 0.0500 ppm, in PDB
  inhibition at 0.05 ppm: 51%
[3]; Monographella nivalis, read-out: Compound 1.001 inhibition (%), compound 1.001 alone at 0.0004 ppm, in PDB
  inhibition at 0.0004 ppm: 4%
[3]; Monographella nivalis, read-out: Compound 1.001 inhibition (%), compound 1.001 alone at 0.0008 ppm, in PDB
  inhibition at 0.0008 ppm: 1%
[3]; Monographella nivalis, read-out: Compound 1.001 inhibition (%), compound 1.001 alone at 0.0016 ppm, in PDB
  inhibition at 0.0016 ppm: 0%
[3]; Monographella nivalis, read-out: Compound 1.001 inhibition (%), compound 1.001 alone at 0.0063 ppm, in PDB (Table 38)
  inhibition at 0.0063 ppm: 0%
[3]; Monographella nivalis, read-out: Compound 1.001 inhibition (%), compound 1.001 alone at 0.0125 ppm, in PDB
  inhibition at 0.0125 ppm: 0%
[3]; Monographella nivalis, read-out: Compound 1.001 inhibition (%), compound 1.001 alone at 0.0125 ppm, in PDB (Table 38)
  inhibition at 0.0125 ppm: 0%
[4]; 0.0016 ppm, in PDB
  Compound 1.001 inhibition (%): 74%
[4]; Alternaria solani, read-out: Compound 1.001 inhibition (%), 0.0004 ppm, in PDB
  inhibition at 0.0004 ppm: 21%
[4]; [9]
  inhibition at 0.0008 ppm: 36%
  inhibition at 0.0016 ppm: 57%
  inhibition at 0.0031 ppm: 81%
[4]; [10]
  inhibition at 0.0008 ppm: 37%
  inhibition at 0.0016 ppm: 64%
[4]; [11]
  inhibition at 0.0008 ppm: 42%
  inhibition at 0.0016 ppm: 68%
[4]; [12]
  inhibition at 0.0008 ppm: 51%
  inhibition at 0.0016 ppm: 69%
  inhibition at 0.0031 ppm: 82%
[4]; Alternaria solani, in PDB
  inhibition at 0.0016 ppm: 65%
[5]; 0.0016 ppm, in PDB
  Compound 1.001 inhibition (%): 33%
[5]; 0.0031 ppm, in PDB
  Compound 1.001 inhibition (%): 82%
[5]; PDB, Table 8
  inhibition at 0.0008 ppm: 15%
  inhibition at 0.0016 ppm: 34%
  inhibition at 0.0031 ppm: 81%
[5]; in PDB
  inhibition at 0.0008 ppm: 19%
  inhibition at 0.0031 ppm: 83%
[5]; PDB, Table 12
  inhibition at 0.0016 ppm: 54%
[5]; PDB, Table 14
  inhibition at 0.0016 ppm: 47%
[6]; 0.0016 ppm, in Vogels Broth
  Compound 1.001 inhibition (%): 33% and 29%
[6]; 0.0031 ppm, in Vogels Broth
  Compound 1.001 inhibition (%): 54%
[6]; 0.0063 ppm, in Vogels Broth
  Compound 1.001 inhibition (%): 62% and 38%
[6]; Botrytis cinerea, read-out: Compound 1.001 inhibition (%), 0.0004 ppm, in Vogels Broth
  inhibition at 0.0004 ppm: 8%
[6]; Botrytis cinerea, read-out: Compound 1.001 inhibition (%), 0.0008 ppm, in Vogels Broth
  inhibition at 0.0008 ppm: 21%
[6]; [13]
  inhibition at 0.0016 ppm: 16%
  inhibition at 0.0125 ppm: 79%
[6]; [14]
  inhibition at 0.0016 ppm: 26%
  inhibition at 0.0125 ppm: 79%
[6]; Botrytis cinerea, read-out: Compound 1.001 inhibition (%), 0.0031 ppm, Vogels Broth, Table 6
  inhibition at 0.0031 ppm: 49%
[6]; Botrytis cinerea, read-out: Compound 1.001 inhibition (%), 0.0031 ppm, in Vogels Broth
  inhibition at 0.0031 ppm: 44%
[6]; Botrytis cinerea, read-out: Compound 1.001 inhibition (%), 0.0063 ppm, Vogels Broth, Table 6
  inhibition at 0.0063 ppm: 61%
[6]; Botrytis cinerea, read-out: Compound 1.001 inhibition (%), compound 1.001 alone at 0.0031 ppm, in Vogels Broth
  inhibition at 0.0031 ppm: 40%
[6]; Botrytis cinerea, read-out: Compound 1.001 inhibition (%), compound 1.001 alone at 0.0063 ppm, in Vogels Broth
  inhibition at 0.0063 ppm: 60%
[7]; 0.0016 ppm, Table 10
  inhibition at 0.0016 ppm: 0%
[7]; 0.0031 ppm, Table 10
  inhibition at 0.0031 ppm: 0%
[7]; 0.0063 ppm, Table 3
  inhibition at 0.0063 ppm: 11%
[7]; 0.0125 ppm, Table 3
  inhibition at 0.0125 ppm: 0%
[7]; 0.0250 ppm, Table 3
  inhibition at 0.025 ppm: 0%
[7]; 0.0500 ppm, Table 3
  inhibition at 0.05 ppm: 0%
[7]; 0.1000 ppm, Table 3
  inhibition at 0.1 ppm: 2%
[7]; 0.2000 ppm, Table 3
  inhibition at 0.2 ppm: 0%
